Reference: ChEMBL document CHEMBL1132404, “2,4,6-triarylchalcogenopyrylium dyes related in structure to the antitumor agent AA1 as in vitro sensitizers for the photodynamic therapy of cancer” (J Med Chem, 1999)

How the values were obtained:
[1] = Inhibition of mitochondrial Cytochrome c Oxidase.; settings: concentration not given here
[2] = (§1) The rate of hydrolysis as a function of time; format: ADME
[3] = Partition coefficient (logP); format: physicochemical; settings: octanol/water
[4] = as §1; format: functional
[5] = tested on: R3230AC; assay: Cell viability was measured against R3230AC rat mammary adenocarcinoma cells at 10 uM concentration; format: functional

| SMILES | inhibition [1] [%] | k1 [2] [s⁻¹] | k2 [2] [s⁻¹] | logP [3] | k1 [4] [s⁻¹] | k2 [4] [s⁻¹] | Cell viability [5] [%] |
| --- | --- | --- | --- | --- | --- | --- | --- |
| CN(C)c1ccc(-c2cc(-c3ccc(N(C)C)cc3)[s+]c(-c3ccc(N(C)C)cc3)c2)cc1.[Cl-] | 0.82 | 0.0001 | 0.000022 | 2.2 |  |  |  |
| CN(C)c1ccc(-c2cc(-c3ccc(N(C)C)cc3)[se+]c(-c3ccc(N(C)C)cc3)c2)cc1 | 0.78 |  |  | 1.7 | 0.00024 | 1.7e-05 |  |
| CN(C)c1ccc(-c2cc(-c3ccc(N(C)C)cc3)[te+]c(-c3ccc(N(C)C)cc3)c2)cc1.[Cl-] | 0.38 |  |  | 2.3 | 0.00024 | 1.1e-05 | ~75 |
